Like-named read-outs stand apart in the source and are kept apart here.
Biological target: human DGAT2 (Homo sapiens (Human), UniProt Q96PD7)
Assay: DGAT2 Enzymatic Activity Assay
Settings: 13C18-triolein product by LC/MS/MS
[1] = Human DGAT2 IC50, hDGAT2 membrane prep from Sf-9 cells
[2] = read-out: Human DGAT2 IC50, hDGAT2 membrane prep from Sf-9 cells

Chain of human DGAT2 (Q96PD7 whole entry): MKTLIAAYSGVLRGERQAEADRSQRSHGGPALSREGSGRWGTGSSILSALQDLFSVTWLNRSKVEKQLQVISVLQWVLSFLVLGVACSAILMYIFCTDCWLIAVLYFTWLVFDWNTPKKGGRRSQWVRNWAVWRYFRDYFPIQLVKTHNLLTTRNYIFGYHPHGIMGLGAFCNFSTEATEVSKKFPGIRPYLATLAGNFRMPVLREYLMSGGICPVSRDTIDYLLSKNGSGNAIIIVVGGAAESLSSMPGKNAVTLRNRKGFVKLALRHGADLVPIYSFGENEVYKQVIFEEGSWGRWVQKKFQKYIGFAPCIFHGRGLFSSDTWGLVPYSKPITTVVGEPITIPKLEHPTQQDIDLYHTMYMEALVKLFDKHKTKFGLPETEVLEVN
Procedure: Sf-9 insect cells were maintained in Grace's insect cell culture medium with 10% heated-inactivated fetal bovine serum, 1% Pluronic F-68 and 0.14 μg/ml Kanamycine sulfate at 27° C. in a shaker incubator. After infection with untagged baculovirus expressing human DGAT2 (hDGAT2) at multiplicity of infection (MOI) 3 for 48 hours, cells were harvested. Cell pellets were suspended in buffer containing 10 mM Tris-HCl pH 7.5, 1 mM EDTA, 250 mM sucrose and Complete Protease Inhibitor Cocktail (Sigma Aldrich), and sonicated on ice. Cell debris were removed by centrifugation at 2000×g for 15 minutes. Membrane fractions were isolated by ultracentrifugation (100,000×g), resuspended in the same buffer, and frozen (−80° C.) for later use. The protein concentration was determined with the Pierce™ BCA Protein Assay Kit (Thermo Fisher Scientific).
LC/MS/MS analyses were performed using Thermal Fisher's LX4-TSQ Vantage system. This system consists of an Agilent binary high-performance liquid chromatography (HPLC) pump and a TSQ Vantage triple quadrupole MS/MS instrument. For each sample, 2 μL samples from the top organic layer of in-plate liquid-liquid extraction were injected onto a Thermo Betabasic C4 column (2.1 mm×20 mm, 5 μm particle size). The samples were then eluted using the following conditions; mobile phase: Isopropanol: acetonitrile/10 mM ammonium formate=50/35/15 (v/v/v), flow rate: 0.8 mL/min, temperature: 25° C. Data was acquired in positive mode using a heated electrospray ionization (HESI) interface. […] The peak area was integrated by Xcalibur Quan software. The ratio between the ^13C18 triolein generated in the reaction and spiked in internal standard ^13C21-triolein was used to generate percentage inhibition and IC50 values. […] DGAT2 activity was determined by measuring the amount of enzymatic product ^13C18-triolein (^13C-1,2,3-Tri(cis-9-octadecenoyl)glycerol) using the membrane prep mentioned above. The assay was carried out in ABgene 384-well assay plates in a final volume of 25 μL at rt.

Structure (SMILES)	IC50 [1]	IC50 [2]
Cn1c(C(=O)NC2(C)CCS(=O)(=O)CC2)nc2ccc(Oc3ncc(F)cc3OCC(F)F)nc21 [Example 30, 5-((3-(2,2-Difluoroethoxy)-5-fluoropyridin-2-yl)oxy)-3-methyl-N-(4-methyl-1,1-dioxidotetrahydro-2H-thiopyran-4-yl)-3H-imidazo[4,5-b]pyridine-2-carboxamide]	1.4 nM	–
O=C(N[C@H]1CCOC1)c1nc2ccc(Oc3ncccc3OCC(F)(F)F)cc2s1 [Example 93, N-[(3S)-tetrahydrofuran-3-yl]-6-[[3-(2,2,2-trifluoroethoxy)-2-pyridyl]oxy]-1,3-benzothiazole-2-carboxamide]	–	472 nM
Cn1c(C(=O)NC2(C)CCS(=O)(=O)CC2)nc2ccc(Oc3ncc(F)cc3OCC(C)(F)F)nc21 [Example 32, 5-[[3-(2,2-difluoropropoxy)-5-fluoro-2-pyridyl]oxy]-3-methyl-N-(4-methyl-1,1-dioxo-thian-4-yl)imidazo[4,5-b]pyridine-2-carboxamide]	–	236 nM
Cn1c(C(=O)NC2(C)CCS(=O)(=O)CC2)nc2ncc(Oc3ncc(Cl)cc3OCC(F)F)cc21 [Example 82, 6-[[5-Chloro-3-(2,2-difluoroethoxy)-2-pyridyl]oxy]-1-methyl-N-(4-methyl-1,1-dioxo-thian-4-yl)imidazo[4,5-b]pyridine-2-carboxamide]	1.2 nM	–
Cn1c(C(=O)NC2(C)CCS(=O)(=O)CC2)nc2cc(Cl)c(Oc3ncc(Cl)cc3OCC(F)F)nc21 [Example 44, 6-chloro-5-((5-chloro-3-(2,2-difluoroethoxy)pyridin-2-yl)oxy)-3-methyl-N-(4-methyl-1,1-dioxidotetrahydro-2H-thiopyran-4-yl)-3H-imidazo[4,5-b]pyridine-2-carboxamide]	86 nM	–
